Here are results for 16 compounds from patent US20080200404A1, “Novel Antimalarial 9A-Carbamoyl-Aminoalkyl and 9A-Thiocarbamoyl-Aminoalkyl Azalides” (priority 2005, published 2008).

The test system of test [1] is Plasmodium falciparum TM91C235. As to the kind of experiment: In vitro antimalarial [3H]-hypoxanthine incorporation assay, TM91C235. In kind it is cell-based. As to conditions: Plasmodium falciparum; P. falciparum TM91C235 (multiple drug resistant isolate), 72 hours exposure. From the text: (§1) The in vitro screens for intrinsic antimalarial activity were based on modifications of the procedures described by Desjardins R E, Canfield C J, Haynes J D, Chulay J D. (Quantitative assessment of antimalarial activity in vitro by a semiautomated microdilution technique. Antimicrob Agents Chemother. 1979 December; 16(6):710-8.), Chulay J D, Haynes J D, Diggs C L. (Plasmodium falciparum: Assessment of in vitro growth by [3H]hypoxanthine incorporation. Exp. Parasitol. 1983 55:138-146.), and Milhous W K, Weatherly N F, Bowdre J H, Desjardins R E. (In vitro activities of and mechanisms of resistance to antifol antimalarial drugs. Antimicrob Agents Chemother. 1985 April; 27(4):525-30.). The system was limited to the assessment of the intrinsic activity against the erythrocytic asexual life cycle (blood schizontocides). Two Plasmodium falciparum clones from CDC/Indochina III (W-2) and CDC/Sierra Leone I (D-6) (Oduola A M, Weatherly N F, Bowdre J H, Desjardins R E. Plasmodium falciparum: cloning by single-erythrocyte micromanipulation and heterogeneity in vitro. Exp Parasitol. 1988 66(1):86-95.) were used for all assays. TM91C235, a multiple drug resistant isolate from Thailand, was used for the prescreening assay. W-2 is resistant to chloroquine, quinine, and pyrimethamine and susceptible to mefloquine. D-6 tends to be more resistant to mefloquine and susceptible to chloroquine, quinine, and pyrimethamine. All documents cited in this paragraph are incorporated by reference in their entirety.
(§2) All parasites were maintained in continuous long term cultures in RPMI-1640 medium supplemented with 6% washed human A positive (A+)(erythrocytes, 25 mM Hepes, […], and 10% heat inactivated A+human plasma or ALBUMAX® (lipid-rich bovine serum albumin; Invitrogen, Carlsbad, Calif.). All cultures and assays were conducted at 37° C. under an atmosphere of 5% CO2 and 5% O2, with a balance of N2.
The prescreening assay uses TM91C235 diluted at a 0.4% parasitemia in a 1% hematocrit in folic acid free and p-aminobenzoic acid free media RPMI-1640 and ALBUMAX®. One mg of the compound is typically dissolved in 100 μl of dimethyl sulfoxide (DMSO). The compound is further diluted in culture medium (FF) with ALBUMAX® for the first initial starting concentration. The rest of the stock drug solution was kept at −70° C. The isolate was preexposed, in duplicate, at three concentrations (25,000 ng/ml, 2,500 ng/ml, and 25 ng/ml) of the test compound for 48 hr in a 96-well microtiter plate (MTP) using the BIOMEK® 2000 automated laboratory workstation. Each MTP contains chloroquine as control to assess the relative activity of the compound and to monitor the response of TM91C235.
(§3) After the preincubation, [^3H]-hypoxanthine was added to each well of the MTP. (The assay relies on the incorporation of radiolabeled hypoxanthine by the parasites, which indicates reproduction, and inhibition of isotope incorporation was attributed to activity of known or candidate antimalarial drugs). After 72 hr of total incubation time, the MTP were frozen to lyse the erythrocytes and parasites. The parasite DNA was recovered by harvesting the lysate onto glass-fiber filter plates using a Packard FilterMate™ Cell Harvester. The radioactivity was counted on a Packard TopCount™ microplate scintillation counter. The results were recorded as counts per minutes (CPM) per well at each drug concentration divided by the arithmetic mean of the CPM from the three untreated infection parasite control wells.
The serial dilution assay was conducted using the same assay conditions and stock solution of the compound used for the preliminary screen, described above. Both the D-6 and the W-2 clones were used. The compounds were diluted two-fold over 11 different concentration ranges with a starting concentration that was based on the preliminary screen. […]

The test system of test [2] is Plasmodium falciparum clone CDC/Sierra Leone I (D-6). As to the kind of experiment: In vitro antimalarial [3H]-hypoxanthine incorporation serial dilution assay, D6. The format is cell-based. The following applies: Plasmodium falciparum, D6, 72 h, P. falciparum D6, 72 hours exposure; read-out: IC50 D6.
Text: as §1, §2, §3
The serial dilution assay was conducted using the same assay conditions and stock solution of the compound used for the preliminary screen, described above. Both the D-6 and the W-2 clones were used. The compounds were diluted two-fold over 11 different concentration ranges with a starting concentration that was based on the preliminary screen. For each drug, the concentration response profile was determined and 50% inhibitory concentrations (IC50) were determined by using a non-linear, logistic dose response analysis program. […] For each assay, the IC50 for each clone was determined against the known antimalarials chloroquine and mefloquine. These control values established the compound's relative parasite susceptibility profile compared to known antimalarials. […]
The in vitro potency of the compounds has been compared with that of azithromycin to better gauge compounds suitable for further testing. As described above, parasites were exposed for 72 hours. Data from the in vitro potency tests of azithromycin against the three parasite strains have been averaged, and these numbers have been used for identification of “active” macrolide compounds.

Broadly, the IC50 is the concentration at which inhibition is half-maximal.

In brackets after ≈: the same amount, converted by molar mass.

For `CC[C@H]1OC(=O)[C@H](C)[C@@H](O[C@H]2C[C@@](C)(OC)[C@@H](O)[C@H](C)O2)[C@H](C)[C@@H](O[C@@H]2O[C@H](C)C[C@H](N(C)C)[C@H]2O)[C@](C)(O)C[C@@H](C)CN(CCCNC(=O)Nc2cccc(SC)c2)[C@H](C)[C@@H](O)[C@]1(C)O` [Example 71], the IC50 in test [1] is 0.131 µg/mL (≈ 0.137 µM); in test [2], 0.318 µg/mL (≈ 0.332 µM).
On to `CC[C@H]1OC(=O)[C@H](C)[C@@H](O[C@H]2C[C@@](C)(OC)[C@@H](O)[C@H](C)O2)[C@H](C)[C@@H](O[C@@H]2O[C@H](C)C[C@H](N(C)C)[C@H]2O)[C@](C)(O)C[C@@H](C)CN(CCCNC(=O)Nc2cc(C(=O)OC)cc(C(=O)OC)c2)[C@H](C)[C@@H](O)[C@]1(C)O` [Example 72], for which the 50% inhibitory concentration (IC50) in test [1] was 0.422 µg/mL (≈ 0.411 µM); in test [2], 0.665 µg/mL (≈ 0.648 µM).
For `CC[C@H]1OC(=O)[C@H](C)[C@@H](O[C@H]2C[C@@](C)(OC)[C@@H](O)[C@H](C)O2)[C@H](C)[C@@H](O[C@@H]2O[C@H](C)C[C@H](N(C)C)[C@H]2O)[C@](C)(O)C[C@@H](C)CN(CCCNC(=O)Nc2ccc(C)cc2)[C@H](C)[C@@H](O)[C@]1(C)O` [Example 73] the same measures were 0.128 µg/mL (≈ 0.139 µM) and 0.305 µg/mL (≈ 0.33 µM).
For `CC[C@H]1OC(=O)[C@H](C)[C@@H](O[C@H]2C[C@@](C)(OC)[C@@H](O)[C@H](C)O2)[C@H](C)[C@@H](O[C@@H]2O[C@H](C)C[C@H](N(C)C)[C@H]2O)[C@](C)(O)C[C@@H](C)CN(CCCNC(=O)NCC2CCCCC2)[C@H](C)[C@@H](O)[C@]1(C)O` [Example 74] the same measures were 0.133 µg/mL (≈ 0.142 µM) and 0.568 µg/mL (≈ 0.609 µM).
For `CC[C@H]1OC(=O)[C@H](C)[C@@H](O[C@H]2C[C@@](C)(OC)[C@@H](O)[C@H](C)O2)[C@H](C)[C@@H](O[C@@H]2O[C@H](C)C[C@H](N(C)C)[C@H]2O)[C@](C)(O)C[C@@H](C)CN(CCCNC(=O)Nc2ccc(C)cc2C)[C@H](C)[C@@H](O)[C@]1(C)O.O=CO` [Example 75] the same measures were 0.229 µg/mL and 0.479 µg/mL.
Turning to `CC[C@H]1OC(=O)[C@H](C)[C@@H](O[C@H]2C[C@@](C)(OC)[C@@H](O)[C@H](C)O2)[C@H](C)[C@@H](O[C@@H]2O[C@H](C)C[C@H](N(C)C)[C@H]2O)[C@](C)(O)C[C@@H](C)CN(CCCNC(=O)Nc2ccc(F)c(F)c2)[C@H](C)[C@@H](O)[C@]1(C)O.O=CO` [Example 76], the IC50 in test [1] was 0.126 µg/mL; in test [2], 0.298 µg/mL.
The matching figures for `CC[C@H]1OC(=O)[C@H](C)[C@@H](O[C@H]2C[C@@](C)(OC)[C@@H](O)[C@H](C)O2)[C@H](C)[C@@H](O[C@@H]2O[C@H](C)C[C@H](N(C)C)[C@H]2O)[C@](C)(O)C[C@@H](C)CN(CCCNC(=O)Nc2ccc(Cl)cc2)[C@H](C)[C@@H](O)[C@]1(C)O.O=CO` [Example 77]: 0.0896 µg/mL and 0.186 µg/mL.
The matching figures for `CC[C@H]1OC(=O)[C@H](C)[C@@H](O[C@H]2C[C@@](C)(OC)[C@@H](O)[C@H](C)O2)[C@H](C)[C@@H](O[C@@H]2O[C@H](C)C[C@H](N(C)C)[C@H]2O)[C@](C)(O)C[C@@H](C)CN(CCCNC(=O)NC(C)(C)CC(C)(C)C)[C@H](C)[C@@H](O)[C@]1(C)O.O=CO` [Example 78]: 0.182 µg/mL and 0.267 µg/mL.
For `CC[C@H]1OC(=O)[C@H](C)[C@@H](O[C@H]2C[C@@](C)(OC)[C@@H](O)[C@H](C)O2)[C@H](C)[C@@H](O[C@@H]2O[C@H](C)C[C@H](N(C)C)[C@H]2O)[C@](C)(O)C[C@@H](C)CN(CCCNC(=S)Nc2ccc(OCc3ccccc3)cc2)[C@H](C)[C@@H](O)[C@]1(C)O.O=CO` [Example 115] the same measures were 0.172 µg/mL and 0.269 µg/mL.
With `CC[C@H]1OC(=O)[C@H](C)[C@@H](O[C@H]2C[C@@](C)(OC)[C@@H](O)[C@H](C)O2)[C@H](C)[C@@H](O[C@@H]2O[C@H](C)C[C@H](N(C)C)[C@H]2O)[C@](C)(O)C[C@@H](C)CN(CCCNC(=S)NC2CCCCCCCCCCC2)[C@H](C)[C@@H](O)[C@]1(C)O.O=CO` [Example 116], the IC50 in test [1] came to 0.149 µg/mL; in test [2], 0.281 µg/mL.
Take `CC[C@H]1OC(=O)[C@H](C)[C@@H](O[C@H]2C[C@@](C)(OC)[C@@H](O)[C@H](C)O2)[C@H](C)[C@@H](O[C@@H]2O[C@H](C)C[C@H](N(C)C)[C@H]2O)[C@](C)(O)C[C@@H](C)CN(CCCNC(=S)NCc2ccc3c(c2)CCC3)[C@H](C)[C@@H](O)[C@]1(C)O.O=CO` [Example 117]: the IC50 in test [1] amounted to 0.223 µg/mL; in test [2], 0.329 µg/mL.
Take `CC[C@H]1OC(=O)[C@H](C)[C@@H](O[C@H]2C[C@@](C)(OC)[C@@H](O)[C@H](C)O2)[C@H](C)[C@@H](O[C@@H]2O[C@H](C)C[C@H](N(C)C)[C@H]2O)[C@](C)(O)C[C@@H](C)CN(CCCNC(=S)Nc2ccc(/N=N/c3ccccc3)cc2)[C@H](C)[C@@H](O)[C@]1(C)O` [Example 118]: the IC50 in test [1] came out at 0.0993 µg/mL (≈ 0.0963 µM); in test [2] it was 0.111 µg/mL (≈ 0.107 µM).
The matching figures for `CC[C@H]1OC(=O)[C@H](C)[C@@H](O[C@H]2C[C@@](C)(OC)[C@@H](O)[C@H](C)O2)[C@H](C)[C@@H](O[C@@H]2O[C@H](C)C[C@H](N(C)C)[C@H]2O)[C@](C)(O)C[C@@H](C)CN(CCCNC(=S)NC(c2ccccc2)c2ccccc2)[C@H](C)[C@@H](O)[C@]1(C)O` [Example 129]: 0.056 µg/mL (≈ 0.055 µM) and 0.222 µg/mL (≈ 0.218 µM).
For `CCOC(=O)CCN(CCCN1C[C@H](C)C[C@@](C)(O)[C@H](O[C@@H]2O[C@H](C)C[C@H](N(C)C)[C@H]2O)[C@@H](C)[C@H](O[C@H]2C[C@@](C)(OC)[C@@H](O)[C@H](C)O2)[C@@H](C)C(=O)O[C@H](CC)[C@@](C)(O)[C@H](O)[C@H]1C)C(=S)NCCc1ccccc1` [Example 160, 9-Deoxo-9-dihydro-9a-{N′-[β-(ethoxycarbonyl)ethyl]-N′-[β-(phenylethyl)thiocarbamoyl]-γ-aminopropyl}-9a-aza-9a-homoerythromycin A] the same measures were 0.0683 µg/mL (≈ 0.0647 µM) and 0.153 µg/mL (≈ 0.145 µM).
The matching figures for `CCOC(=O)CCN(CCCN1C[C@H](C)C[C@@](C)(O)[C@H](O[C@@H]2O[C@H](C)C[C@H](N(C)C)[C@H]2O)[C@@H](C)[C@H](O[C@H]2C[C@@](C)(OC)[C@@H](O)[C@H](C)O2)[C@@H](C)C(=O)O[C@H](CC)[C@@](C)(O)[C@H](O)[C@H]1C)C(=S)NCCCc1ccccc1` [Example 161, 9-Deoxo-9-dihydro-9a-{N′-[β-(ethoxycarbonyl)ethyl]-N′-[γ-(phenylpropyl)thiocarbamoyl]-γ-aminopropyl}-9a-aza-9a-homoerythromycin A]: 0.054 µg/mL (≈ 0.0505 µM) and 0.142 µg/mL (≈ 0.132 µM).
As to `CCOC(=O)CCN(CCCN1C[C@H](C)C[C@@](C)(O)[C@H](O[C@@H]2O[C@H](C)C[C@H](N(C)C)[C@H]2O)[C@@H](C)[C@H](O[C@H]2C[C@@](C)(OC)[C@@H](O)[C@H](C)O2)[C@@H](C)C(=O)O[C@H](CC)[C@@](C)(O)[C@H](O)[C@H]1C)C(=S)NCc1ccccc1` [Example 162, 9-Deoxo-9-dihydro-9a-{N′-[β-(ethoxycarbonyl)ethyl]-N′-benzylthiocarbamoyl-γ-aminopropyl]-9a-aza-9a-homoerythromycin A], the IC50 was found to be 0.0693 µg/mL (≈ 0.0665 µM) in test [1] and 0.104 µg/mL (≈ 0.1 µM) in test [2].
